The test system of one series is CCDC47. How it is done: Human serum samples from individuals with type 2 diabetes mellitus (T2D) and/or cardiomyopathy treated with various drugs and appropriate control subjects (n=120 total) were acquired from a commercial source. The characteristics of the group was as follows:
The level of the cardiomyopathy protein biomarker CCDC47 were measured in the serum samples from the T2DM individuals and drug treated T2DM individuals using commercially available ELISA kits. The assays were performed using the manufactures' instructions. An ROC analysis was performed to determine if serum CCDC47 levels correlated with cardiomyopathy.

In the next series the test system is EDIL3. Put plainly: Serum EDIL3 ELISA in normal, T2DM, Rosiglitazone-treated T2DM and cardiomyopathy individuals. Type of series: in vivo, human. To be noted: some Rosiglitazone-treated T2DM individuals vs. the other Rosiglitazone-treated T2DM individuals; FIG. 7. How it is done: (§1) The level of protein expression of cardiotoxicity biomarkers EDIL3 and NucB1 in the serum samples from these four groups of individuals were measured by using commercially available ELISA kits.
(§2) The expression levels of the cardiotoxicity biomarkers EDIL3 and NucB1 were determined and the average expression of each biomarker for each group of individuals was calculated.
For orientation: ELISA stands for enzyme-linked immunosorbent assay.

The next series deals with serum lipids. Put plainly: Serum lipidomics of patients (diabetes / rosiglitazone / cardiomyopathy groups). Type of series: in vivo, human. From the text: The platform methods provided herein enables integration of multi-omic signatures from human drug induced organ toxicity models. A substantive example of the platforms prowess that is under consideration here is a human drug induced cardio toxicity scenario. Human drug induced cardio toxicity models that comprises of i) Human cardiomyocyte based in vitro models of cardiotoxicity and ii) Serum samples from patients on a drug that induces cardiotoxicity. In vitro models include human cardio myocyte pretreated with fatty acids (linoleic, oleic acids and L-Carnitine) followed by treatment with a drug. The drug under consideration here is a thiazolidinedione. Cell based assays specifically measuring functional end points namely mitochondrial ATP, ROS, cell viability and mitochondrial bioenergetics were performed on in vitro models.
Proteomics was performed using the LTQ Orbitrap from Thermo Scientific as mentioned in earlier reports. Shortgun Lipidomics was performed using the TSQ vantage EMR triple Quad mass spec from thermo.
Standard procedures for merging, normalization and imputation were followed. Quality control plots for these steps are included in the accompanying folder.
Quantification of lipids that are common to serum lipid networks and pellet lipid networks. […] Lipid levels are expressed as a percent of normal lipid levels in FIG. 10B. […]

The subject of the next series is NucB1. Put plainly: Serum NucB1 ELISA in normal, T2DM, Rosiglitazone-treated T2DM and cardiomyopathy individuals. Type of series: in vivo, human. As to conditions: some Rosiglitazone-treated T2DM individuals vs. the other Rosiglitazone-treated T2DM individuals; FIG. 8. How it is done: as §1, §2

Like-named read-outs stand apart in the source and are kept apart here.

Turning to `CC(C)c1c(C(=O)Nc2ccccc2)c(-c2ccccc2)c(-c2ccc(F)cc2)n1CC[C@@H](O)C[C@@H](O)CC(=O)O` [atorvastatin], the “level of CCDC47 in serum” value with CCDC47 (human, in vivo) was “No significant difference”.

Regarding `CN(C)C(=N)N=C(N)N` [metformin], in the series with CCDC47 (human, in vivo), the “level of CCDC47 in serum” value is recorded as “No significant difference”.

As to `CN(CCOc1ccc(CC2SC(=O)NC2=O)cc1)c1ccccn1` (stereo not shown) [rosiglitazone], in the series on EDIL3, the “EDIL3 expression level in serum” value is given as “decreased”. The “level of CCDC47 in serum” value with CCDC47 (subjects treated with the drug vs. subjects treated with the other two drugs (rosiglitazone, metformin, atorvastatin), ELISA, FIG. 13) is listed as “significant increase”. The “serum level of lipid PE D18:0-20:3/D18:1-20:2/D16:0-22:3” value in the series on serum lipids (diabetic subjects on rosiglitazone with clinical diagnosis of cardiomyopathy vs. diabetic alone and diabetics on rosiglitazone without cardiomyopathy, FIG. 10) is reported as “significantly reduced”. For the same compound, the “serum ethanolamine glycerophospholipid species P16:0-20:4, D18:0-18:2, P16:0-22:6, P18:0-20:4 and D18:0-20:4” value in the series on serum lipids (diabetic vs. diabetic rosiglitazone no cardiomyopathy vs. diabetic rosiglitazone cardiomyopathy) was “stratified along with the treatment with rosiglitazone”. Further, the “NucB1 expression level in serum” value in the series with NucB1 was “decreased”.

These data come from patent US10352947B2, “Use of markers in the identification of cardiotoxic agents and in the diagnosis and monitoring of cardiomyopathy and cardiovascular disease” (Berg LLC, priority 2012, dated 2019).
